`CN(C)C(=O)OCCCc1ccccc1` registered a logP of 2.93. Take `CCN(CC)C(=O)OCC(C)C`: the logP came to 2.82. The logP values of the last two compounds are within 0.2 log units of each other. For the compound `CN(C)C(=O)OCCc1c[nH]c2ccccc12`, the logP was 2.54. For the compound `NC(=O)OCCc1ccccc1`, the logP was found to be 1.5. The compound `NC(=O)OCCc1c[nH]c2ccccc12` registered a logP of 1.69. `CCN(CC)C(=O)OCc1ccccc1` gave a logP of 2.93. As for `NC(=O)OCCCc1ccccc1`, the figure is 1.96. As for `CN(C)C(=O)OCCc1ccccc1`, the log partition coefficient (logP) is 2.4.

Regarding `NC(=O)OCCCc1cccnc1`, the logP stood at 0.46. As for `CN(C)C(=O)OCCCc1cccnc1`, the logP came to 1.44. Take `CC(Cc1ccccc1)OC(=O)N(C)C` (stereo not drawn): the log partition coefficient (logP) amounted to 2.6.

`CNC(=O)OCc1ccccc1` registered a logP of 1.68.

In turn, `CCN(CC)C(=O)OCCCc1ccccn1` yielded a logP of 2.36. Then `CCC(CC)COC(=O)N(CC)CC`, with 3.6; and `CCN(CC)C(=O)OCCc1c[nH]c2ccccc12`, with 3.3. Consider `CC(C)OC(=O)N(C)C`, for which the logP came out at 1.38. `CCC(CC)COC(=O)N(C)C` yielded a logP of 2.87. Then `CCN(CC)C(=O)OCCc1ccccc1`, with 3.2.

The values are drawn from the OPERA property sets (Mansouri et al. 2018).
